Source: patent publication US6555322B1, “α2-macroglobulin receptor as a receptor for CTGF” (FibroGen, Inc., priority 1999, dated 2003)

Experiments:
[1] = molecular target: T1, LRP (Mus musculus, UniProt Q91ZX7); assay: RAP-GST competition of CTGF binding on BMS-2 cells; set-up: species or system murine
T1 construct: endogenous in cells; host or cells: BMS2 (BMS-2) murine bone marrow stromal cells
Protocol: In a further study, receptor associated protein (RAP), a known inhibitor of ligand binding to LRP, was prepared. Plasmid DNA containing the human RAP cDNA sequence was obtained (ATCC as the I.M.A.G.E. Consortium Clone ID 511113, Lennon et al., 1996, Genomics, 33:151-152). The RAP sequence was sub-cloned into the pGEX4T-1 vector (Pharmacia) for the synthesis of a RAP-GST (glutathione S-transferase) fusion protein in E. coli. The fusion protein was purified over glutathione-Sepharose as described (Warshawsky et al., 1993, J. Biol. Chem., 268:22046-22054), and tested as a competitor of CTGF binding.

[2] = test system: MG63 cells; assay: Internalization and degradation of 125I-rhCTGF during binding, with additives; type: cell-based, human; settings: for degraded/internalized 125I-CTGF with additive: both cultures (control and TGF-β treated)
Protocol: Another experiment was performed in which the internalization and degradation of CTGF was followed during the time course of binding to the cells. Various additives were included in the binding medium to examine the effect(s) and specificity of CTGF binding and internalization through LRP.
MG63 cells were plated and treated with TGF-β for 24 or 48 hours as in the previous experiment.

[3] = test system: MG63 cells; assay: CTGF production and accumulation in medium and cell layer (Western blot, densitometry); type: cell-based, human; settings: RAP 10 nM
Protocol: To determine whether LRP was involved in the mediation of a CTGF signaling event, experiments were conducted to study the effect of anti-LRP antibodies on CTGF production and accumulation. MG63 cells were plated at 2.5×10^4 cells/cm^2 in 24 well plates in MEM with 10% FBS. The following day, the medium was changed to MEM with 0.5% FBS. Additionally, half of the wells were supplemented with 20 ng/ml TGF-β2. Some of the cells also received either anti-LRP antibodies (American Diagnostic) (3 ug/ml 3402 and 1 ug/ml 3501) or RAP (10 nM). At 15, 23, and 47 hours after exposure to these additives, medium and cell layers were harvested.
The harvested media was then incubated with heparin-SEPHAROSE for 4 hours. The beads were washed twice with RIPA buffer and the bound fraction was eluted with SDS-PAGE sample buffer. The cell layer was washed twice with PBS, then extracted for 15 min at 4° C. with RIPA buffer. The cell layer was collected by scraping, and centrifuged to remove the insoluble material. The soluble fraction was used for SDS-PAGE analysis. Both medium and cell layer samples were run non-reduced on 12% SDS-PAGE, then blotted to nitrocellulose. The nitrocellulose membranes were incubated with a rabbit polyclonal antibody made against rhCTGF (using procedures well known in the art), the data of which is shown in FIGS. 22A and 22B.

[4] = molecular target: T2, high Mr CTGF binding protein on BMS-2 cells (Mus musculus, UniProt Q91ZX7); assay: Binding analysis of 125I-CTGF competition with LRP ligands on BMS-2 cells; set-up: species or system murine; settings: 0.1 nM 125I-CTGF
T2 construct: endogenous in cells; host or cells: BMS2 (BMS-2) murine bone marrow stromal cells
Protocol: BMS-2 cells were incubated with 0.1 nM ^125I-CTGF in the presence of unlabeled CTGF, recombinant human apoE, low density lipoprotein purified from human plasma (LDL), or lipoprotein lipase purified from bovine milk (LpL).

[5] = molecular target: T1, LRP; assay: Competitive binding and cross-linking of LRP ligands with 125I-CTGF on BMS-2 cells; set-up: species or system murine; settings: 50 pM 125I-CTGF; CTGF 21.5 nM, BP5 201-218 50 μg/ml, LF 25 μg/ml, apo E 20 μg/ml, LpL 20 μg/ml
Protocol: To examine whether ligands known to bind to LRP inhibit CTGF binding, BMS-2 cells were labeled with 50 pM ^125I-CTGF in the presence or absence of unlabeled ligand (CTGF: 21.5 nM; BP5^201-218: 50 μg/ml or […] (Campbell and Andress, 1997, Am. J. Physiol., 273:E1005-13); lactoferrin (LF): 25 μg/ml or 250 nM; apo E: 20 μg/ml or 574 nM; lipoprotein lipase (LpL): 20 μg/ml or 400 nM). The cells were cross-linked and the receptor complexes were solubilized, processed on SDS-PAGE and visualized by autoradiography.

[6] = test system: MG63 cells; assay: Internalization and degradation kinetics of 125I-CTGF with heparin or lactoferrin; type: cell-based, human; settings: 3 μg/ml heparin or lactoferrin
Protocol: Experiments were performed in which the internalization and degradation kinetics of CTGF were followed in the presence or absence of a known LRP ligand, lactoferrin. Kinetics were followed in the presence or absence of 3 μg/ml heparin or lactoferrin. ^125I-CTGF was bound to MG63 cells at 4° C. and free CTGF was removed by washing the cells. Fresh medium was placed on the cells, and the cells were transferred to 37° C. At each time point, the medium was removed and TCA precipitated. Degraded ^125I-CTGF was quantified by measuring the cpm in the non-precipitable fraction (see FIG. 17). In parallel experiments, ^125I-CTGF was bound to MG63 cells at 4° C. and free CTGF was removed by washing the cells. Fresh medium was placed on the cells, and they were transferred to 37° C. At each time point, the cell layer was removed by extensive trypsinization at 4° C. The cells were centrifuged and the cpm associated with the pellet, the internalized fraction, was determined (see FIG. 18).

T1 sequence (Q91ZX7 20-4545): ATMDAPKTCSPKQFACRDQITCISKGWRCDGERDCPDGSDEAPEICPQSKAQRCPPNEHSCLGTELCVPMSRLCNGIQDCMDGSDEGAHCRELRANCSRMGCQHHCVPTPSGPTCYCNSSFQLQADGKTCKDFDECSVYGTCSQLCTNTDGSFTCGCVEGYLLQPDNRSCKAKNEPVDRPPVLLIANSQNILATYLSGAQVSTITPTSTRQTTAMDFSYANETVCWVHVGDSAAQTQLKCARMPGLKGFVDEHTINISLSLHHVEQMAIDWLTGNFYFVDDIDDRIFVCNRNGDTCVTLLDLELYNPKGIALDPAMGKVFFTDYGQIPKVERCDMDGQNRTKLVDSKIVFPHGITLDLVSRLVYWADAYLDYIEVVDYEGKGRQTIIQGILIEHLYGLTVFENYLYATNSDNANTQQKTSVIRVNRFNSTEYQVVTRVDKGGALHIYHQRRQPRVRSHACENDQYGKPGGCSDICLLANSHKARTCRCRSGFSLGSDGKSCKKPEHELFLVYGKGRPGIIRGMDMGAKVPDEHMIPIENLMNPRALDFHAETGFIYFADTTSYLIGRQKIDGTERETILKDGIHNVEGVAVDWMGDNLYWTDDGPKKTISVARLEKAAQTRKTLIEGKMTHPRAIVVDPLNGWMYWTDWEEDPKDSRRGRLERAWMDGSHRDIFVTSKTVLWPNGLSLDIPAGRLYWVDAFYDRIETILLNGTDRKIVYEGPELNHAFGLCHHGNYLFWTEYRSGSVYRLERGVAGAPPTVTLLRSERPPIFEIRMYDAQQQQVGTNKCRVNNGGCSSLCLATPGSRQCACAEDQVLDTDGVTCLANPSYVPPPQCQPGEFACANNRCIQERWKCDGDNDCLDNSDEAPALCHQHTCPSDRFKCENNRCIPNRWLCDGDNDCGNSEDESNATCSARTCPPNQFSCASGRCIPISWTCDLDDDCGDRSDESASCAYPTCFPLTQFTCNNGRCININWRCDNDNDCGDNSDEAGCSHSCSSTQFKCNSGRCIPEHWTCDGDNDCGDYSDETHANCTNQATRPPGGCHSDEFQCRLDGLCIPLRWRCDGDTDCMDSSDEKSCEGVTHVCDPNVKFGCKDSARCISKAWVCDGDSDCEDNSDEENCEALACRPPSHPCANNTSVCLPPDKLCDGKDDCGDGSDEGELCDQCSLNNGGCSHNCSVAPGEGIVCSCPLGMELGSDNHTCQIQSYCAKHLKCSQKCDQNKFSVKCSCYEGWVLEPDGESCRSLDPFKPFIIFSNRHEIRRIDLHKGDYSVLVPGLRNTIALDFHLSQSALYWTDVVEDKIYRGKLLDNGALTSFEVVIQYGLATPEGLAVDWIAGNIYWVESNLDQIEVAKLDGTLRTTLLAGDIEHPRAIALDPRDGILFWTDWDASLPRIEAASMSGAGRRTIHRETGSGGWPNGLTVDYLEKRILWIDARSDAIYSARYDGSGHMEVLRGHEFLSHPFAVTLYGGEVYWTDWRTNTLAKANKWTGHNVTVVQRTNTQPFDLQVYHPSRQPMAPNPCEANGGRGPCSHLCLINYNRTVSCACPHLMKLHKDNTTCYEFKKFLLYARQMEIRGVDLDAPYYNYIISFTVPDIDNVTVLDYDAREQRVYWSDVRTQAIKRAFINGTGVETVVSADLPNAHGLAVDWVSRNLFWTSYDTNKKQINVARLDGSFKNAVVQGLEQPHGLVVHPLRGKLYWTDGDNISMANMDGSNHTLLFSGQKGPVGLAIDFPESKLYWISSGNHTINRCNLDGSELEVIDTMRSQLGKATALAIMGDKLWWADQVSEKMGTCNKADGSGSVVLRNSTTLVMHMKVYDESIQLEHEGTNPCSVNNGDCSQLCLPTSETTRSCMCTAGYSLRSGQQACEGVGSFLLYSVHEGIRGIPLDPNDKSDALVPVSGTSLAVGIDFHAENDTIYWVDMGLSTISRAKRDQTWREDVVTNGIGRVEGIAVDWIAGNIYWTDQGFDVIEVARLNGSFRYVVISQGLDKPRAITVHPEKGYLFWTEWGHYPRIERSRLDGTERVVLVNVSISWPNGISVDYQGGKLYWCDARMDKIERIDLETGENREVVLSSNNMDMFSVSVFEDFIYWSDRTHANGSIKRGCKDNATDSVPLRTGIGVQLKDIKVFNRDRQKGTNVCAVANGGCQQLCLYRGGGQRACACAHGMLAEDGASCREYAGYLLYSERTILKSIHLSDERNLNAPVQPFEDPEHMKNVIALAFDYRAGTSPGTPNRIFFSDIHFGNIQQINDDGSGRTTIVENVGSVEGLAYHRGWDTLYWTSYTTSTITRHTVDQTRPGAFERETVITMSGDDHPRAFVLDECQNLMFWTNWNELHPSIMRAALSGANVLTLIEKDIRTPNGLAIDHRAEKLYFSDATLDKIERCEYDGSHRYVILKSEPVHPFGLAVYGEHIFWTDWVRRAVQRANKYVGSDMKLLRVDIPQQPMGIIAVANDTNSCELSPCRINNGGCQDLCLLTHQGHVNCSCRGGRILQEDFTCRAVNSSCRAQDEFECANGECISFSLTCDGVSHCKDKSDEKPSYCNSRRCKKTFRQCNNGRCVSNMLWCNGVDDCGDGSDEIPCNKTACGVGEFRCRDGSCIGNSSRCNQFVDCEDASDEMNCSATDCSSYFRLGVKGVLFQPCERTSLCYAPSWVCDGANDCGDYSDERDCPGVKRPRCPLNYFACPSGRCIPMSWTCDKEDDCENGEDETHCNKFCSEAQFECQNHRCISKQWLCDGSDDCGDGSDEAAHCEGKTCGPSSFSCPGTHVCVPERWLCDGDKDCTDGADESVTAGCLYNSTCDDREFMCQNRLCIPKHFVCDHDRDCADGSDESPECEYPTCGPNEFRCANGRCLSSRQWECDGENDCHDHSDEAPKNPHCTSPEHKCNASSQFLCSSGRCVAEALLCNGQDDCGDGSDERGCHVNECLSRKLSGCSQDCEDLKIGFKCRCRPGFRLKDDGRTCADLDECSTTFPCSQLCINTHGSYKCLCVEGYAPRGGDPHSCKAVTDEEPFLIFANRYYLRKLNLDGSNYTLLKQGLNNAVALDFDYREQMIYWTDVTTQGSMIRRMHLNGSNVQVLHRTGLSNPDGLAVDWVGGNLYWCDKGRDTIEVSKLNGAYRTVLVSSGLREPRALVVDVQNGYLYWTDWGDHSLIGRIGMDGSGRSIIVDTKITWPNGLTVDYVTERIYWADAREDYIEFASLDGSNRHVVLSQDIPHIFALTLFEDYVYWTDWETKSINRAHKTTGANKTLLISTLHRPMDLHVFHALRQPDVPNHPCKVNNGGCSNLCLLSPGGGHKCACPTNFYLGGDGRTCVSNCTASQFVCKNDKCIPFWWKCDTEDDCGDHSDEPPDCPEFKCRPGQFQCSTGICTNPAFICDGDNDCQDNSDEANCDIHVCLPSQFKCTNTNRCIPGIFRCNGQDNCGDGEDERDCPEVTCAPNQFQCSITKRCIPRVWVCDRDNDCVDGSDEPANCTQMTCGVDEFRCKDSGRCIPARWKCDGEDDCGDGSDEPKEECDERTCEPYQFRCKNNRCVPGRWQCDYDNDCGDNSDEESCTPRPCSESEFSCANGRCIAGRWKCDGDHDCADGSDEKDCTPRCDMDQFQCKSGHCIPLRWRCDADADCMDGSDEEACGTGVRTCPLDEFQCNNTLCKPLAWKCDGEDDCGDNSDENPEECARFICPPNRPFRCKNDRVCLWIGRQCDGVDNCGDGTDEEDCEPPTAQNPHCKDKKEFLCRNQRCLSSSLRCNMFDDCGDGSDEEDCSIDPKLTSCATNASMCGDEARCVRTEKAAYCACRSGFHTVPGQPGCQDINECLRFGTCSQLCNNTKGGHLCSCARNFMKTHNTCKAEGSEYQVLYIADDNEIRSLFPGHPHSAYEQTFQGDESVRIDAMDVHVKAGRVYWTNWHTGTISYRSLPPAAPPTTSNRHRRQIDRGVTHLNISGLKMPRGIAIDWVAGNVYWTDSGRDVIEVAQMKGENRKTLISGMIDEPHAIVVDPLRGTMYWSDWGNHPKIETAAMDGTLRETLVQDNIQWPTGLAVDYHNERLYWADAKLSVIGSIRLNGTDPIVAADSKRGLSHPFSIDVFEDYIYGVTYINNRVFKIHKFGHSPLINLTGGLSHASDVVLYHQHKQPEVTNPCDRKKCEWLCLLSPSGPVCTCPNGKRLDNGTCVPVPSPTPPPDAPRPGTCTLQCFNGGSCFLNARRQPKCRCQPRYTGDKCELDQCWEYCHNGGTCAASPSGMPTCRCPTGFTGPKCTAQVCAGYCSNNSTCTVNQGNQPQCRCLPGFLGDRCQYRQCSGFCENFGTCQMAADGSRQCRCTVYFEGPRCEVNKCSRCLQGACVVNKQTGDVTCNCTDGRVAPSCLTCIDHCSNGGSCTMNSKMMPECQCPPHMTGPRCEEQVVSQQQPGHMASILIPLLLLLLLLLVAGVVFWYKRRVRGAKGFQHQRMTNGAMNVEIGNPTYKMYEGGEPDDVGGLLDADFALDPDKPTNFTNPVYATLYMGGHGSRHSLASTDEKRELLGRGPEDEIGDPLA
T2 sequence (Q91ZX7 20-4545): as above

Compound: RAP-GST: human receptor associated protein as glutathione S-transferase fusion protein made in E. coli; inhibitor of ligand binding to LRP
- competition for CTGF binding to LRP [1]: able to compete
- degraded/internalized 125I-CTGF with additive [2]: to background levels
- CTGF levels in cell layer, RAP treated samples [3]: slightly increased levels
- CTGF medium concentration at 15 and 23 hours [3]: an increase
- CTGF medium levels at 47 hours [3]: returned to basal levels

Compound: GST: GST protein by itself, control for RAP-GST
- competition for CTGF binding to LRP [1]: no competitive activity

Compound: apolipoprotein E [apoE, reference compound]
- competition with 125I-CTGF [4]: competed
- competing the binding to the LRP receptor [5]: very effective in competing

Compound: heparin [reference compound]
- rate of degradation of CTGF [6]: reduced the rate
- rate of internalization of CTGF [6]: reduced the rate

Compound: CC(C)C[C@H](NC(=O)[C@@H](NC(=O)N[C@@H](Cc1ccccc1)C(=O)O)[C@@H]1CCN=C(N)N1)C(=O)N[C@H](C=O)Cc1ccccc1 [Chymostatin]
- degraded/internalized 125I-CTGF with additive [2]: no appreciable affect

Compound: CCN(CC)CCCC(C)Nc1ccnc2cc(Cl)ccc12 (centres unmarked) [chloroquin, Chloroquin]
- rhCTGF remaining internalized, TGF-β treated cultures ([2]; chloroquin treated samples, TGF-β treated cultures): ~400 fmol
- rhCTGF remaining internalized, control cultures ([2]; chloroquin treated samples, control cultures): About 1000 fmoles
- secretion of CTGF degradation products into the medium ([2]; in the presence of chloroquin): not secreted into the medium
